Test results from US20260272889A1, “COGNITIVE FUNCTION-IMPROVING AGENT AND PHARMACEUTICAL COMPOSITION FOR TREATING OR PREVENTING COGNITIVE DYSFUNCTION” (TOHOKU UNIVERSITY, priority 2022, published 2026).

Columns and labels:
[1] = test system: mouse microglial cell line MG6; assay: qRT-PCR of cytokine expression in microglial cell line MG6 (Example 1); assay type: cell-based; conditions: MG6 cells, 0.03 μM or 0.1 μM, 24 hours, qRT-PCR normalized with Gapdh
Protocol: A mouse microglial cell line MG6 was used for experiments. MG6 was seeded on a 12-well plate at 5×10^4 cells/well using a DMEM (high glucose) medium containing 10% of FBS, 10 μg/ml of insulin, and 0.1 mM of 2-mercaptoethanol. The seeded MG6 was cultured in an incubator at 37° C. and a CO2 concentration of 5%. After 24 hours from the start of culture, drugs were added as follows. First, pemafibrate as the PPARα agonist was diluted with DMEM (high glucose) medium to have a final concentration of 0.03 μM or 0.1 μM using dimethylsulfoxide (DMSO) as a solvent. Then, the total amount of the medium of the well in which MG6 was seeded was replaced with the medium containing 0.03 μM or 0.1 μM of pemafibrate, or a medium to which DMSO was added as a control. Cells were collected additional 24 hours after the medium replacement.
Total RNA was extracted from the collected cells using RNeasy Mini kit (Qiagen). Reverse transcription of the total RNA was performed using GeneAce cDNA Synthesis Kit (FUJIFILM Wako Pure Chemical Corporation). THUNDERBIRD (trade name) SYBR qPCR Mix (Toyobo) was used to perform qRT-PCR by ABI7500 Real Time PCR system (Thermo Fisher Scientific). Relative gene expression was calculated by a ΔCt method and normalized with Gapdh. The following primers were used.

[2] = test system: schizophrenic model (MK-801) mice; assay: Novel object recognition test (NORT), MK-801 schizophrenic model, Example 2; assay type: in vivo, C57BL/6J mice
Protocol: (§1) Inbred C57BL/6J (B6J) mice were purchased from Charles River Laboratories Japan, Inc. (Kanagawa, Japan). The mice were housed four by four in standard cages and reared on a 12-hour light/dark cycle (lights on at 8:00 and off at 20:00) in a room where temperature and humidity were controlled. The mice had free access to standard laboratory chow MF (ORIENTAL YEAST Co., Ltd., Tokyo, Japan) and water. No special environmental enrichment was provided in the home cage. Behavioral testing was performed using males from 10:00 to 18:00.
(§2) MK-801 (FUJIFILM Wako Pure Chemical Corporation, Osaka, Japan) was diluted with physiological saline to a concentration of 1 mg/ml to prepare a stock solution, which was stored at −80° C. The MK-801 stock solution (1 mg/ml) was then further diluted with physiological saline to 20 μg/ml and stored at −20° C. as a solution for administration. The MK-801 administration solution (20 μg/ml) was thawed on the day of administration and used for administration to mice. The MK-801 administration solution (20 μg/ml) was used within one week after freezing. MK-801 is an antagonist of an NMDA (glutamatergic N-methyl-D-aspartate) receptor. Chronic administration of MK-801 to mice causes a decrease in spine density and abnormal behavior similar to schizophrenia in mice. Mice to which MK-801 was chronically administered were used as a disease model of schizophrenia. Mice to which physiological saline was administered instead of MK-801 were used as a healthy model.
(§3) Pemafibrate (Toronto Research Chemicals, Tronto, Canada) was diluted with DMSO to a concentration of 30 mg/ml and stored as a stock solution at −80° C. On the day of administration, the pemafibrate stock solution (30 mg/ml) was diluted with corn oil (Sigma-Aldrich, USA) to a concentration of 0.1 mg/ml and used for administration to mice. As a control, a DMSO solution prepared by diluting DMSO in corn oil was used for administration to mice (DMSO:corn oil=1:300).
(§4) MK-801 (0.2 mg/kg/day) or physiological saline was intraperitoneally administered to 6-week-old C57BL/6J mice (males) once a day for 2 weeks. […]

[3] = test system: schizophrenic model (MK-801) mice; assay: Spine density analysis of prefrontal cortex pyramidal cells, Example 2; assay type: in vivo, C57BL/6J mice
Protocol: as §1, §2, §3, §4

[4] = test system: schizophrenic model (MK-801) mice; assay: NORT, examination of therapeutic method, Example 3; assay type: in vivo, C57BL/6J mice; conditions: FIG. 9
Protocol: (§5) Animals and reagents the same as in Example 2 were used.
(§6) MK-801 (0.2 mg/kg/day) or physiological saline was intraperitoneally administered to 6-week-old C57BL/6J mice (males) once a day for 2 weeks. Mice to which MK-801 was administered and mice to which physiological saline was administered were each divided into two groups, to which pemafibrate (0.3 mg/kg/day) or solvent (DMSO solution) was orally administered once a day for one week.
(§7) NORT was performed using a group of 12 mice. NORT was performed in a manner similar to that in Example 1.
(§8) In the examination of the therapeutic method, a schizophrenic model in which MK-801 was administered to 6-week-old mice for 2 weeks was used (see upper parts in FIGS. 9 and 10). In the healthy model, physiological saline (saline) was administered instead of MK-801.

[5] = test system: schizophrenic model (MK-801) mice; assay: Spine density analysis, examination of therapeutic method, Example 3; assay type: in vivo, C57BL/6J mice
Protocol: as §5, §6
(§9) Sampling for spine density analysis was performed after completion of NORT. Spine density analysis was performed using a group of 6 mice. Spine density analysis was performed in a manner similar to that in Example 2.
as §8

[6] = test system: schizophrenic model (MK-801) mice; assay: NORT, examination of prophylaxis, Example 3; assay type: in vivo, C57BL/6J mice; conditions: FIG. 11
Protocol: as §5
(§10) Examination of prophylaxis: Pemafibrate (0.3 mg/kg/day) or solvent (DMSO solution) was orally administered to 6-week-old C57BL/6J mice (males) once a day for 2 weeks. Mice to which pemafibrate was administered and mice to which DMSO was administered were each divided into two groups, to which MK-801 (0.2 mg/kg/day) or physiological saline was intraperitoneally administered once a day for two weeks.
as §7
(§11) In the examination of the prophylaxis, pemafibrate was administered to 6-week-old mice for 2 weeks, and then MK-801 was administered thereto for 2 weeks (see upper parts in FIG. 11 and FIG. 12). In the healthy model, physiological saline (saline) was administered instead of MK-801.

[7] = test system: schizophrenic model (MK-801) mice; assay: Spine density analysis, examination of prophylaxis, Example 3; assay type: in vivo, C57BL/6J mice; conditions: FIG. 12
Protocol: as §5, §10, §9, §11

[8] = schizophrenic model (MK-801(+)), pemafibrate 0.3 mg/kg/day oral 1 week, FIG. 8
[9] = prophylaxis: pemafibrate 0.3 mg/kg/day oral 2 weeks, then MK-801 2 weeks, group (4)

For CC[C@@H](Oc1cccc(CN(CCCOc2ccc(OC)cc2)c2nc3ccccc3o2)c1)C(=O)O [pemafibrate], the “expression of inflammatory cytokines (IL-1b, Tnfa)” value ([1]; FIG. 1) was “inhibits the expression”, the “expression of anti-inflammatory cytokines (IL-4, IL-10)” value ([1]; FIG. 2) was “inhibits the expression” and the “NORT dwell time around new object compared with familiar object” value ([2]; healthy model (MK-801(-)), pemafibrate 0.3 mg/kg/day oral 1 week, FIG. 6) was “significantly longer”. For the same molecule, the “NORT dwell time around new object compared with familiar object” value ([2]; schizophrenic model (MK-801(+)), pemafibrate 0.3 mg/kg/day oral 1 week after MK-801, FIG. 6) was “significantly longer”, the “spine density compared with healthy model” value [3, 8] was “no significant difference” and the “spine density compared with pemafibrate non-administration group of schizophrenic model” value [3, 8] was “significantly increased”. For the same molecule, the “NORT dwell time around new object compared with familiar object” value ([4]; therapeutic: healthy models (saline), with pemafibrate) was “significantly longer”, the “NORT dwell time around new object compared with familiar object” value ([4]; therapeutic: schizophrenic model group (4), pemafibrate 0.3 mg/kg/day oral 1 week after MK-801 2 weeks) was “significantly longer” and the “effect on spine density of schizophrenic model” value ([5]; therapeutic: group (4) vs non-administration group (3), FIG. 10) was “restores the spine density”. For the same molecule, the “spine density compared with healthy models” value ([5]; therapeutic: schizophrenic model group (4), pemafibrate 0.3 mg/kg/day oral 1 week after MK-801, FIG. 10) was “no significant difference”, the “NORT dwell time around new object compared with familiar object” value ([6]; prophylaxis: healthy models (saline), with pemafibrate) was “significantly longer” and the “NORT dwell time around new object compared with familiar object” value [6, 9] was “significantly longer”. For the same molecule, the “decrease in spine density caused by MK-801” value ([7]; prophylaxis: group (4) vs non-administration group (3)) was “suppressed” and the “spine density compared with healthy models” value [7, 9] was “no significant difference”.

With C[C@]12N[C@H](Cc3ccccc31)c1ccccc12 [MK-801] the “NORT dwell time, new object vs familiar object” value ([2]; MK-801 0.2 mg/kg/day i.p. 2 weeks, no pemafibrate, FIG. 5) was “no significant difference” and the “spine density compared with healthy model (saline)” value ([3]; MK-801 0.2 mg/kg/day i.p. 2 weeks, no pemafibrate, FIG. 7) was “significantly reduced”.
